For orientation: melting point means the temperature, or range, at which the solid turns liquid. Broadly, the EC50 is the concentration at which the effect is half-maximal. A lower EC50 goes with a more potent agent. The IC50 is the concentration that gives 50% inhibition.

In one data set the test system is TNF. Nature of the data set: PBMC assay: TNF cytokine levels in supernatant of LPS-stimulated human PBMCs (MSD). It counts as cell-based. To be noted: Homo sapiens, PBMC, 30 min compound pre-incubation, 100 ng/ml LPS for 6 hrs. The protocol:
(§1) Peripheral venous blood was collected from healthy individuals and human peripheral blood mononuclear cells (PBMCs) were isolated from blood by Ficoll-Histopaque (Sigma-Aldrich, A0561) density gradient centrifugation. After isolation, PBMCs were stored in liquid nitrogen for later use. Upon thawing, PBMC cell viability was determined in growth medium (RPMI media supplemented with 10% fetal bovine serum, 1% Pen-Strep and 1% L-glutamine). Compounds were spotted in a 1:3 serial dilution in DMSO and diluted to the final concentration in 30 μl medium in 96 well plates (Falcon, 353072). PBMCs were added at a density of 7.5×10^4 cells per well and incubated for 30 min in a 5% CO2 incubator at 37° C. LPS stimulation was performed by addition of 100 ng/ml LPS (final concentration, Invivogen, tlrl-smlps) for 6 hrs followed by collection of cellular supernatant and the analysis of IL-1β […] and TNF cytokines levels […] via MSD technology according to manufacturers' guidelines (MSD, K15A0H).
The IC50 values (for IL-1β) and EC50 values (TNF) were obtained on compounds of the invention/examples, and are depicted in the following table: […]

The next data set concerns the target T1, NLRP3 (Homo sapiens, UniProt Q96P20).
T1 construct: human peripheral blood mononuclear cells (PBMCs) were isolated from blood; endogenous in cells; host or cells: primary human PBMCs from healthy donors
Put plainly: PBMC assay: IL-1β levels in supernatant of LPS-stimulated human PBMCs (MSD). To be noted: 30 min compound pre-incubation, 100 ng/ml LPS for 6 hrs, IL-1β in supernatant, read-out: IL-1B IC50. Type of data set: cell-based. The protocol: The activity of a compound according to the present invention can be assessed by in vitro methods.
as §1, with “Compounds were spotted in a 1:3 serial dilution in DMSO and diluted to the final concentration in 30 μl medium in 96 well plates (Falcon, 353072).” left out

T1 sequence (Q96P20 whole entry): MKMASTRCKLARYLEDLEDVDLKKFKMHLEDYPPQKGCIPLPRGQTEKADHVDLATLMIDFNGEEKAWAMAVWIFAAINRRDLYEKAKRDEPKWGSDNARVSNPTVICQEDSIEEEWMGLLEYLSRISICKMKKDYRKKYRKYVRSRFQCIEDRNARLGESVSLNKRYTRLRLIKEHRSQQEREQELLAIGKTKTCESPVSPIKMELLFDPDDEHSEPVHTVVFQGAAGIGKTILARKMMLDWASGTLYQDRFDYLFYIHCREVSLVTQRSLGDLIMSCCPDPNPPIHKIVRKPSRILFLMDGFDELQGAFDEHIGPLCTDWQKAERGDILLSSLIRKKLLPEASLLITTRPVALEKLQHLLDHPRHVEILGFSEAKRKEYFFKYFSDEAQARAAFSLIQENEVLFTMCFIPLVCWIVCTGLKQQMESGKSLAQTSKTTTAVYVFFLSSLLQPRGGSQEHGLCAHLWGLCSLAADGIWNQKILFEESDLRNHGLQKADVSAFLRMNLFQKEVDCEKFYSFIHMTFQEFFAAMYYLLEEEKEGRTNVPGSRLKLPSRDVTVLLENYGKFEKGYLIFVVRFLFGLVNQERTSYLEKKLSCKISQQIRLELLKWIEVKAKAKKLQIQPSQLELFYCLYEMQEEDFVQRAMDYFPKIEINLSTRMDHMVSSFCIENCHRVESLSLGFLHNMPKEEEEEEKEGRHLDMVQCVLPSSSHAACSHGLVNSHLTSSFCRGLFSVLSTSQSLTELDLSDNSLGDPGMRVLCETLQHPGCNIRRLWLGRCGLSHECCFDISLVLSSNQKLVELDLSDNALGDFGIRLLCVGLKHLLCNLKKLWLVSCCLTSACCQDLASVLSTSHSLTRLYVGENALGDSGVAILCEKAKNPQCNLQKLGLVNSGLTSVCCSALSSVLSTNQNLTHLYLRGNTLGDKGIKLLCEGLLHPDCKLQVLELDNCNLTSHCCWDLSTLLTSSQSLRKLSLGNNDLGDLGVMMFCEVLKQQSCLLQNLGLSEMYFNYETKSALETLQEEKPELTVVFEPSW

Compound `O=C(Cn1nc(C2CC2)c2nc(C3CC3)sc2c1=O)Nc1ccc2nncn2c1` [F-26] had a melting point of 285 °C. In the data set on TNF, the EC50 was 10.8 µM. Besides, the IC50 at NLRP3 was found to be 126 nM.
Regarding `C[C@]1(O)C[C@@H](NC(=O)Cn2nc(C3CC3)c3nc(C4CC4)sc3c2=O)C1` [F-27], the melting point was determined as 198.2 °C. This compound also registered an EC50 with TNF of more than 20 µM. Moreover, the IC50 at NLRP3 worked out at 780 nM.
The matching figures for `CC(C)c1nn(CC(=O)Nc2ccc3cncn3c2)c(=O)c2sc(C3CC3)nc12` [F-28]: 195.8 °C, 6.36 µM and 97 nM.
Consider `CC(C)c1nn(CC(=O)Nc2ccn3ccnc3c2)c(=O)c2sc(C3CC3)nc12` [F-29], for which the melting point was found to be 215.5 °C. Further, a half-maximal response in the data set on TNF (EC50) required 12.3 µM. Besides, the IC50 on NLRP3 stood at 155 nM.
The matching figures for `Cc1nc2ccc(NC(=O)Cn3nc(C(C)C)c4nc(C5CC5)sc4c3=O)cn2n1` [F-30]: 204.6 °C, 19.6 µM and 237 nM.
The compound `CC(C)c1nn(CC(=O)Nc2ccn3ccnc3n2)c(=O)c2sc(C3CC3)nc12` [F-34] showed a melting point of 258 °C. Further, in the data set with TNF, a half-maximal response (EC50) required 8.26 µM. For the same compound, the IC50 on NLRP3 stood at 692 nM.
`Cc1nnc2cc(NC(=O)Cn3nc(C(C)C)c4nc(C5CC5)sc4c3=O)ccn12` [F-35]: the melting point stood at 282.4 °C. Besides, in the data set with TNF, the EC50 is more than 20 µM. Further, the IC50 on NLRP3 was determined as 1190 nM.
For `CC(C)c1nn(CC(=O)Nc2cnc3nccn3c2)c(=O)c2sc(C3CC3)nc12` [F-37], the melting point was 147.1 °C. This compound also displayed an EC50 in the data set on TNF of more than 20 µM. Also, the IC50 at NLRP3 stood at 247 nM.
With `CC(C)c1nn(CC(=O)Nc2ccn3ncnc3c2)c(=O)c2sc(C3CC3)nc12` [F-38], the melting point is 203.8 °C. In the data set with TNF, this compound returned an EC50 of 15.7 µM. At NLRP3, the IC50 came to 354 nM.
In turn, `CC(C)c1nn(CC(=O)Nc2ccc3nnc(C(F)F)n3c2)c(=O)c2sc(C3CC3)nc12` [F-39] registered a melting point of 216.3 °C. The compound further showed an EC50 in the data set with TNF of 13.1 µM. Also, the IC50 at NLRP3 came to 446 nM.
The matching figures for `CC(C)c1nn(CC(=O)Nc2cc(Br)c3nncn3c2)c(=O)c2sc(C3CC3)nc12` [F-41, N-(8-bromo-[1,2,4]triazolo[4,3-a]pyridin-6-yl)-2-(2-cyclopropyl-4-isopropyl-7-oxothiazolo[4,5-d]pyridazin-6(7H)-yl)acetamide]: 280.9 °C, more than 20 µM and 265 nM.
The like results for `CC(C)c1nn(CC(=O)Nc2ccc3ncoc3c2)c(=O)c2sc(C3CC3)nc12` [F-43] were, in that order, 194.9 °C, 9.62 µM and 102 nM.
With `CC(C)c1nn(CC(=O)Nc2ccc(C(F)F)nc2)c(=O)c2sc(C3CC3)nc12` [F-45], the melting point was 170.1 °C. In addition, in the data set with TNF, the EC50 amounted to 17.4 µM. For the same compound, the IC50 at NLRP3 came out at 907 nM.
As to `CC(C)c1nn(CC(=O)Nc2ccc(=O)n(C)c2)c(=O)c2sc(C3CC3)nc12` [F-46], the melting point was found to be 240.9 °C. In addition, in the data set with TNF, the EC50 was more than 20 µM. Besides, the IC50 on NLRP3 was 137 nM.
`CC(C)c1nn(CC(=O)Nc2cc(Cl)c(=O)n(C(F)F)c2)c(=O)c2sc(C3CC3)nc12` [F-48] returned a melting point of 206.7 °C. This compound registered an EC50 in the data set with TNF of 17.9 µM. Further, the IC50 at NLRP3 amounted to 1450 nM.
The like results for `CC(C)c1nn(CC(=O)Nc2ccc3nnc(C(F)(F)F)n3n2)c(=O)c2sc(C3CC3)nc12` [F-49, 2-(2-cyclopropyl-4-isopropyl-7-oxo-thiazolo[4,5-d]pyridazin-6-yl)-N-[3-(trifluoromethyl)-[1,2,4]triazolo[4,3-b]pyridazin-6-yl]acetamide] were, in that order, 223.8 °C, more than 20 µM and 462 nM.
`CC(C)c1nn(CC(=O)Nc2cc(C(F)(F)F)ncn2)c(=O)c2sc(C3CC3)nc12` [F-50] had a melting point of 172 °C. Further, the EC50 in the data set with TNF was more than 20 µM. Moreover, the half-maximal inhibitory concentration (IC50) on NLRP3 was more than 20000 nM.
The matching figures for `CC(C)c1nn(CC(=O)Nc2ccc3nccn3n2)c(=O)c2sc(C(C)(F)F)nc12` [F-53]: 206.5 °C, 11.9 µM and 215 nM.
Consider `O=C(Cn1nc(C2CC2)c2nc(C3CC3)sc2c1=O)Nc1ccc2nncn2n1` [F-54], for which the melting point was found to be 248.3 °C. The compound further gave an EC50 in the data set with TNF of approximately 17.3 µM. Moreover, the IC50 at NLRP3 turned out to be 150 nM.
`CC(C)c1nn(CC(=O)Nc2cc(F)[nH]c(=O)c2)c(=O)c2sc(C3CC3)nc12` [F-55] yielded a melting point of 292.7 °C. The same compound yielded an EC50 in the data set with TNF of more than 20 µM. Further, the IC50 on NLRP3 was 443 nM.
Turning to `Cc1nnc2ccc(NC(=O)Cn3nc(C(C)C)c4nc(C5CC5)sc4c3=O)nn12` [F-56], the melting point worked out at 250 °C. For the same compound, in the data set on TNF, the EC50 came to 10.8 µM. Moreover, on NLRP3, the IC50 amounted to 110 nM.
The like results for `CC(C)c1nn(CC(=O)Nc2ccc3nncn3n2)c(=O)c2sc(C3CC3)nc12` [F-57] were, in that order, 245.4 °C, 4.89 µM and 19 nM.
The like results for `CC(C)c1nn(CC(=O)Nc2ccc3nccn3n2)c(=O)c2sc(C3CC3)nc12` [F-59] were, in that order, 201.7 °C, 2.16 µM and 69 nM.

The values above are taken from US20240043450A1, “NEW COMPOUND” (JANSSEN PHARMACEUTICA NV, priority 2020, published 2024).
